Test results from patent publication US12403184B2, “Compositions and methods for treating neurodegenerative disroders” (priority 2018, dated 2025).
Where no end group is shown, it is not given here.

How the values were obtained:
ATAD3A = molecular target: T1, ATAD3A (Mus musculus, UniProt Q925I1); experiment: ATAD3A dimerization by western blot, Neuro2A cells; format: cell-based; settings: Neuro2A cells exposed to 3-NP (5 mM, 7 hours), DA1 1 μM overnight
T1 construct: endogenous in cells; host or cells: Neuro2A cells
T1 sequence (Q925I1 1-591): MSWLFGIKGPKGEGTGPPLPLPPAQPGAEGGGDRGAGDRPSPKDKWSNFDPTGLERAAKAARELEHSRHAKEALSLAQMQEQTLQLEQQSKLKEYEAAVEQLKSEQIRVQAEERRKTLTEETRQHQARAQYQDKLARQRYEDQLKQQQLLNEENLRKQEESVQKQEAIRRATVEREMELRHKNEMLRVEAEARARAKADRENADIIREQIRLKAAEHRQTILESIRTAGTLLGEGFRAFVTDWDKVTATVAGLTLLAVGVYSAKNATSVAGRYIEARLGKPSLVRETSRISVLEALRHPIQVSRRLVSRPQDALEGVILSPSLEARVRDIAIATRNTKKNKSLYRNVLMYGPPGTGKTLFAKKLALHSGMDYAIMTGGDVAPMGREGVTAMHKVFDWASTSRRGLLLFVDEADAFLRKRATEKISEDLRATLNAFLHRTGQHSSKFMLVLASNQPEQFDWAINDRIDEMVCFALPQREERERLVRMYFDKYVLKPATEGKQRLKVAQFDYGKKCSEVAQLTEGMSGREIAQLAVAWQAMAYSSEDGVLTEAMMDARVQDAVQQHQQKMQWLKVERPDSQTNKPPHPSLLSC
Method: To analyze dimerization of ATAD3A under non-reducing conditions, the cells or tissues were harvested and lysed with total lysates buffer. An equal amount of proteins was subject to 8% SDS-PAGE analysis in the presence or absence of β-mercaptoethanol (β-ME). For in vitro BMH crosslinking, the cell lysates were incubated with 1 mM BMH at r.t. for up to 25 min and quenched with 0.1% β-ME, followed by SDS-PAGE analysis. For in-vivo crosslinking, the cells were treated with cell-permeable crosslinker BMH (1 mM) for 20 min at 37° C. After crosslinking, the cells were quenched in PBS with 0.1% β-ME. For DSP crosslinking, the cells were treated with cell-permeable crosslinker for 5 min at 37° C., followed by quenching and washing with 10 mM Glycine in PBS. For formaldehyde (FA) crosslinking, the cells were incubated with PBS buffer containing 1% FA for 20 min at r.t., and the crosslinking reaction was terminated by washing in PBS containing 100 mM glycine. The cells were then lysed and subject to 8% SDS-PAGE analysis. For DTSSP crosslinking of proteins in mitochondrial fractions, isolated mitochondria samples were suspended in the mitochondrial lysis buffer (250 mM sucrose, 20 mM HEPES-NaOH, pH 7.5, 10 mM KCl, 1.5 mM MgCl2, 1 mM EDTA, 1 mM EGTA and protease inhibitor). An equal amount of crude mitochondria was incubated at 30° C. in the presence of 0.5 mM DTSSP. […]

[1] = system: striatum of R6/2 and YAC128 mice; experiment: Western blot of striatal proteins in treated HD mice; format: in vivo, mouse; settings: for TFAM protein level / mtCO2 protein level: striatal mitochondria
Method: Cells were washed with cold phosphate-buffered saline (PBS) and incubated on ice in mitochondrial lysis buffer (250 mM sucrose, 20 mM HEPES-NaOH, pH 7.5, 10 mM KCl, 1.5 mM MgCl2, 1 mM EDTA, 1 mM EGTA, protease inhibitor cocktail, and phosphatase inhibitor cocktail) for 30 min. The cells were scraped and then disrupted 15 times by repeated aspiration through a 25-gauge needle. Mouse brains were minced and homogenized in mitochondrial lysis buffer to release mitochondria. The homogenates were spun at 800×g for 10 min at 4° C., and the resulting supernatants were spun at 12,000×g for 20 min at 4° C. The pellets were washed with lysis buffer and spun at 12,000×g again for 20 min at 4° C. The final pellets were suspended in lysis buffer containing 1% Triton X-100 and were mitochondrial-rich lysate fractions. The mitochondrial protein voltage-dependent anion channel (VDAC) was used as a loading control.
Protein concentration was measured by protein assay dye reagents (Bio-rad). The protein was resuspended in Laemmli buffer, loaded on SDS-PAGE, and transferred onto nitrocellulose membranes. Membranes were probed with the indicated antibodies, followed by visualization with ECL. Representative blots have been cropped for presentation.
Systemic peptide treatment in HD mice. All randomization and peptide treatments were prepared by an experimenter not associated with behavioral and neuropathology analysis. Male R6/2 mice (Tg) and their age-matched wild-type littermates (Wt) (6-week-old) were implanted with a 28-day osmotic pump (Alzet, Cupertino CA, Model 2004) containing TAT control peptide or DA1 peptide, which delivered peptides at a rate of 1 mg/kg/day. Male YAC128 mice (Tg) and their age-matched wild-type littermates (WT) were treated with TAT control peptide or DA1 peptide (1 mg/kg/day) by Alzet osmotic pump starting from the age of 3 months. The pump was replaced once every month.

[2] = YAC128 mice, 12 months old, striatal extracts

**Q.** For “YGRKKRRQRRRGGEDKRKT-NH2 [DA1, YGRKKRRQRRR-GG-EDKRKT-NH2]”, which “dimerization of ATAD3A” value (ATAD3A) is on record?
**A.** abolished

**Q.** And the TFAM protein level ([1]; R6/2 mice, 12 weeks old)?
**A.** corrected

**Q.** What about the mtCO2 protein level ([1]; R6/2 mice, 12 weeks old) of the same substance?
**A.** corrected

**Q.** And the nuclear-encoded mitochondrial proteins ([1]; YAC128 and wildtype mice, 6 months old, striatal mitochondrial lysates)?
**A.** no observable effects

**Q.** And the TFAM protein level ([1]; YAC128 mice, 6 months old)?
**A.** corrected

**Q.** What about the mtCO2 protein level ([1]; YAC128 mice, 6 months old) of the same substance?
**A.** corrected

**Q.** And the DARPP-32 protein level [1, 2]?
**A.** increased

**Q.** What about the PSD95 protein level [1, 2] of the same substance?
**A.** increased

**Q.** What about the PGC1α protein levels ([1]; YAC128 mouse striatum, until 12 months of age) of the same substance?
**A.** increased
